This passage reports IC50 and pIC50 results from ChEMBL document CHEMBL3045355, “Synthesis of a New Series of 4-Aryl-1,4-Dihydropyridines with Calcium Channel Blocking and Vasodilatory Activity” (Med Chem Res, 2012).

Assay [1] deals with T1, Voltage-gated L-type calcium channel (Rattus norvegicus, UniProt P22002+Q02485+P27732). Description: Inhibition of L-type calcium channel in neonatal rat cortical neurons assessed as inhibition of veratridine-induced intracellular calcium level incubated for 30 min followed by veratridine induction for 2 min by fluorimetric analysis. It is filed as cell-based. For orientation: A change in cytosolic calcium serves as a functional read-out for many receptors and channels.

The target in assay [2] is T1, Voltage-gated L-type calcium channel. In words: Inhibition of L-type calcium channel in Rattus norvegicus Wistar (rat) thoracic aorta assessed as relaxation of phenylephrine-induced vasoconstriction after 30 min relative to control. It is filed as tissue-based.
For assay [3] the target is unchanged. In words: Inhibition of L-type calcium channel in Rattus norvegicus Wistar (rat) thoracic aorta assessed as relaxation of KCl-induced vasoconstriction after 30 min relative to control. It is filed as tissue-based.

Usually IC50 stands for the concentration at which inhibition is half-maximal. As a reminder, the pIC50 is the negative decadic logarithm of the IC50, by convention in mol/L.

Take `COC(=O)C1=C(C)NC(C)=C(C(=O)OC)C1c1ccc(OCC(=O)NC(C)(C)C)c(OC)c1`: the concentration for half-maximal inhibition (IC50) in assay [1] worked out at 2.5 µM.
With `COC(=O)COc1cccc(C2C(C(=O)OC)=C(C)NC(C)=C2C(=O)OC)c1`, the half-maximal inhibitory concentration (IC50) in assay [1] was 10 µM. In assay [2], the IC50 amounted to 1.44 µM and the pIC50 worked out at 5.84.
On the same counts, the results for `COC(=O)C1=C(C)NC(C)=C(C(=O)OC)C1c1ccc(OCC(=O)N2CCCC2)c(OC)c1` are 5.6 µM, 0.83 µM and 6.08.
As to `CCOC(=O)C1=C(C)NC(C)=C(C(=O)OC)C1c1ccc(OCC(=O)OC)c(OC)c1` (configuration not stated), in assay [3], the IC50 amounted to 12.8 µM and the pIC50 was 4.89.
For the compound `COC(=O)C1=C(C)NC(C)=C(C(=O)OC)C1c1ccc(OCC(=O)N2CCN(C)CC2)c(OC)c1`, the half-inhibitory concentration (IC50) in assay [1] was determined as 9.1 µM. Moreover, in assay [2], the IC50 was found to be 6.91 µM and the negative logarithm of the IC50 (pIC50) is reported as 5.16.
Regarding `COC(=O)COc1ccc(C2C(C(=O)OC)=C(C)NC(C)=C2C(=O)OC)cc1`, in assay [1], the IC50 was 2.1 µM.
On to `CCOC(=O)C1=C(C)NC(C)=C(C(=O)OC)C1c1ccc(OCC(=O)N2CCCCC2)c(OC)c1` (configuration not stated), for which, in assay [3], the half-inhibitory concentration (IC50) stood at 3.89 µM and the negative-log IC50 (pIC50) is 5.41.
Consider `COC(=O)C1=C(C)NC(C)=C(C(=O)OC)C1c1ccc(OCC(=O)N2CCCCC2)c(OC)c1`, for which, in assay [1], the IC50 is 10 µM.
`COC(=O)C1=C(C)NC(C)=C(C(=O)OC)C1c1ccc(OCC(=O)n2ccnc2)c(OC)c1`: the IC50 in assay [1] stood at 10.1 µM.
Consider `COC(=O)C1=C(C)NC(C)=C(C(=O)OC)C1c1cccc(OCC(=O)N2CCOCC2)c1`, for which, in assay [1], the IC50 was 9.9 µM. In addition, in assay [2], the IC50 came to 0.64 µM and the pIC50 worked out at 6.19.
For `COC(=O)C1=C(C)NC(C)=C(C(=O)OC)C1c1ccc(OCC(=O)N2CCCC(C)C2)c(OC)c1` (configuration not stated), in that order: 10 µM, 1.73 µM and 5.76.
For `COC(=O)C1=C(C)NC(C)=C(C(=O)OC)C1c1cccc(OCC(=O)N2CCCC2)c1`, in that order: 3.6 µM, 4.57 µM and 5.34.
`COC(=O)C1=C(C)NC(C)=C(C(=O)OC)C1c1cccc(OCC(=O)N2CCCCC2)c1`: the IC50 in assay [1] was determined as 10 µM.
Regarding `CCOC(=O)C1=C(C)NC(C)=C(C(=O)OC)C1c1cccc(OCC(=O)N2CCCCC2)c1` (configuration not stated), in assay [3], the concentration for half-maximal inhibition (IC50) is 1.25 µM and the negative-log IC50 (pIC50) was 5.9.
With `COC(=O)C1=C(C)NC(C)=C(C(=O)OC)C1c1cccc(OCC(=O)N2CCN(C)CC2)c1`, in assay [1], the 50% inhibitory concentration (IC50) was 10 µM. In assay [2], the IC50 was found to be 9.54 µM and the pIC50 was determined as 5.02.
